Laboratory results published in article PMC4592898, “Biochemical Characterisation of Phage Pseudomurein Endoisopeptidases PeiW and PeiP Using Synthetic Peptides” (Archaea, 2015).

Assays:
PeiW = biological target: T1, PeiW (Methanothermobacter phage psiM100, UniProt Q7LYX0); assay: inhibition of EγApNA hydrolysis, […] nm, […] min preincubation; type: biochemical; details: for inhibition at 1000 µM: read-out: % inhibition at 1 mM
T1 construct: N-terminal His-tag kept, pET151D, E. coli BL21-Rosetta 2; 317 residues and 37,219 Da with tag; monomer
T1 sequence (Q7LYX0 whole entry): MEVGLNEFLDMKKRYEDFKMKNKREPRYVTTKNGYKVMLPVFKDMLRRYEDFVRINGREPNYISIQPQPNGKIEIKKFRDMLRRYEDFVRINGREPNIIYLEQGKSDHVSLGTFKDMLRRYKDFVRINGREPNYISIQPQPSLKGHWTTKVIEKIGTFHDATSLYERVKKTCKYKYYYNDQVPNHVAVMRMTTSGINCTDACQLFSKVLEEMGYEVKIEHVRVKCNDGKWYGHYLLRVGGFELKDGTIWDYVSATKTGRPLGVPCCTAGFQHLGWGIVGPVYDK

PeiP = biological target: T2, PeiP (Methanobacterium phage psiM2, UniProt Q77WJ4); assay: as above; type: biochemical; details: read-out: % inhibition at 1 mM
T2 construct: N-terminal His-tag kept, pET151D, E. coli BL21-Rosetta 2; 338 residues and 39,537 Da with tag; monomer
T2 sequence (Q77WJ4 whole entry): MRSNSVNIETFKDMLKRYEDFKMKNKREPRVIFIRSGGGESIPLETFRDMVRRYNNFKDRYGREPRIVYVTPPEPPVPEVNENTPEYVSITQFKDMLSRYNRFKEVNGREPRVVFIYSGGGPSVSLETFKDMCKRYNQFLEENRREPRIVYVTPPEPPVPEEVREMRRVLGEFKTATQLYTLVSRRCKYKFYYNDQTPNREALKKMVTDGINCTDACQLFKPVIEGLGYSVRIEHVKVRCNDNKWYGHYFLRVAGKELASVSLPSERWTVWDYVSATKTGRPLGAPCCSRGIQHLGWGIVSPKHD

| SMILES | inhibition at 1000 µM (PeiW) [%] | inhibition at 1000 µM (PeiP) [%] | % inhibition at 1 mM (PeiW; 60 °C, pH 7.85, 10 mM CaCl2, 10 mM TCEP) [%] |
| --- | --- | --- | --- |
| NCCSSCCN [Cystamine] | 100 | 100 |  |
| CN(C)c1cccc2c(S(=O)(=O)NCCCCCN)cccc12 [Dansylcadaverine] | 60 | 50 |  |
| CC(C)C[C@H](NC(=O)[C@@H]1O[C@H]1C(=O)O)C(=O)NCCCCNC(=N)N [E64] | 10 | 30 |  |
| O=S(=O)(F)Cc1ccccc1 [PMSF] |  |  | 10 |
